Laboratory results as given in PubChem BioAssay AID1963849 (Molecular Pharmacology Branch, DTP, NCI, 2024).
pIC50: −log10 of the molar value.

Tested on: 299254-011-R-J1-PDC complex spheroid viability
Assay: Anticancer human tumor 299254-011-R-J1-PDC patient-derived melanoma cell line growth inhibition [POLQ]
Conditions: for pIC50: curve of first compound; for viability, T/C: stronger effect = lower value; active = viability on the fitted dose curve at most 10% of control; inactive = the rest
Outline: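 Complex spheroid viability model combining PDC tumour cells with endothelial (HUVEC) and MSC stromal cells. Novobiocin, ART-558 or RP6685 were tested singly and in combination with standard and investigational anticancer drugs. Each was titrated in half-log steps from near clinical Cmax, or from 10 microM where Cmax was unknown.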

[1] = second compound 0.0316 µM, first compound 0.0316 µM
[2] = second compound 0.0316 µM, first compound 0.1 µM
[3] = second compound 0.0316 µM, first compound 0.316 µM
[4] = second compound 0.0316 µM, first compound 1 µM
[5] = second compound 0.0316 µM, first compound 3.16 µM
[6] = second compound 0.0316 µM, first compound 10 µM
[7] = second compound 0.1 µM, first compound 0.0316 µM
[8] = second compound 0.1 µM, first compound 0.1 µM
[9] = second compound 0.1 µM, first compound 0.316 µM
[10] = second compound 0.1 µM, first compound 1 µM
[11] = second compound 0.1 µM, first compound 3.16 µM
[12] = second compound 0.1 µM, first compound 10 µM
[13] = second compound 0.316 µM, first compound 0.0316 µM
[14] = second compound 0.316 µM, first compound 0.1 µM
[15] = second compound 0.316 µM, first compound 0.316 µM
[16] = second compound 0.316 µM, first compound 1 µM
[17] = second compound 0.316 µM, first compound 3.16 µM
[18] = second compound 0.316 µM, first compound 10 µM
[19] = second compound 1 µM, first compound 0.0316 µM
[20] = second compound 1 µM, first compound 0.1 µM
[21] = second compound 1 µM, first compound 0.316 µM
[22] = second compound 1 µM, first compound 1 µM
[23] = second compound 1 µM, first compound 3.16 µM
[24] = second compound 1 µM, first compound 10 µM
[25] = second compound 3.16 µM, first compound 0.0316 µM
[26] = second compound 3.16 µM, first compound 0.1 µM
[27] = second compound 3.16 µM, first compound 0.316 µM
[28] = second compound 3.16 µM, first compound 1 µM
[29] = second compound 3.16 µM, first compound 3.16 µM
[30] = second compound 3.16 µM, first compound 10 µM
[31] = second compound 10 µM, first compound 0.0316 µM
[32] = second compound 10 µM, first compound 0.1 µM
[33] = second compound 10 µM, first compound 0.316 µM
[34] = second compound 10 µM, first compound 1 µM
[35] = second compound 10 µM, first compound 3.16 µM
[36] = second compound 10 µM, first compound 10 µM
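Note: spheroids exposed to drugs for one week before measurement.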
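Throughout, for viability, T/C: percent viability relative to DMSO vehicle control taken as 100%.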

O=C(Nc1ccc(O)c(NS(=O)(=O)c2ccc(F)cc2)c1)c1ccc(-c2ccccc2)cc1 + COC1C(OC(N)=O)C(O)C(Oc2ccc3c(O)c(NC(=O)c4ccc(O)c(CC=C(C)C)c4)c(=O)oc3c2C)OC1(C)C
< 5.00: pIC50 (second compound 0.1 µM) | pIC50 (second compound 1 µM) | pIC50 (second compound 3.16 µM) | pIC50 (second compound 10 µM)
5.04: pIC50 (second compound 0.0316 µM)
inactive: viability, T/C [1] 105% | viability, T/C [2] 96.9% | viability, T/C [3] 94.2% | viability, T/C [4] 109% | viability, T/C [5] 112% | viability, T/C [6] 45.3% | viability, T/C [7] 95.6% | viability, T/C [8] 114% | viability, T/C [9] 105% | viability, T/C [10] 94.6% | viability, T/C [11] 86.3% | viability, T/C [12] 57.1% | viability, T/C [13] 127% | viability, T/C [14] 101% | viability, T/C [15] 104% | viability, T/C [16] 95.7% | viability, T/C [17] 97.7% | viability, T/C [18] 42.6% | viability, T/C [19] 110% | viability, T/C [20] 104% | viability, T/C [21] 108% | viability, T/C [22] 118% | viability, T/C [23] 93.3% | viability, T/C [24] 54.7% | viability, T/C [25] 109% | viability, T/C [26] 114% | viability, T/C [27] 109% | viability, T/C [28] 94.6% | viability, T/C [29] 99.4% | viability, T/C [30] 55.9% | viability, T/C [31] 96.2% | viability, T/C [32] 127% | viability, T/C [33] 106% | viability, T/C [34] 103% | viability, T/C [35] 96.5% | viability, T/C [36] 58.4%
5.06: pIC50 (second compound 0.316 µM)

COc1cc(C2c3cc4c(cc3C(OC3OC5COC(C)OC5C(O)C3O)C3COC(=O)C23)OCO4)cc(OC)c1O (centres undefined) + Nc1ccc(C#CCN(C(=O)Cc2ncc(C(F)(F)F)cc2C(F)(F)F)c2ccc(F)cc2)nn1
< 5.00: pIC50 (second compound 0.0316 µM) | pIC50 (second compound 0.1 µM) | pIC50 (second compound 0.316 µM) | pIC50 (second compound 1 µM) | pIC50 (second compound 3.16 µM) | pIC50 (second compound 10 µM)
inactive: viability, T/C [1] 112% | viability, T/C [2] 105% | viability, T/C [3] 87.5% | viability, T/C [4] 92.2% | viability, T/C [5] 78.7% | viability, T/C [6] 63.5% | viability, T/C [7] 112% | viability, T/C [8] 94.4% | viability, T/C [9] 112% | viability, T/C [10] 84.5% | viability, T/C [11] 89.7% | viability, T/C [12] 69.7% | viability, T/C [13] 114% | viability, T/C [14] 100% | viability, T/C [15] 88.5% | viability, T/C [16] 106% | viability, T/C [17] 83.7% | viability, T/C [18] 74.8% | viability, T/C [19] 108% | viability, T/C [20] 99.2% | viability, T/C [21] 90.3% | viability, T/C [22] 99.6% | viability, T/C [23] 71.8% | viability, T/C [24] 82.3% | viability, T/C [25] 99.7% | viability, T/C [26] 102% | viability, T/C [27] 88.9% | viability, T/C [28] 80.7% | viability, T/C [29] 76.8% | viability, T/C [30] 69.3% | viability, T/C [31] 98.8% | viability, T/C [32] 100% | viability, T/C [33] 89.9% | viability, T/C [34] 75.5% | viability, T/C [35] 89.1% | viability, T/C [36] 71.7%
